Assay results reported in ChEMBL document CHEMBL1123092, “Psychotomimetic N-methyl-N-isopropyltryptamines. Effects of variation of aromatic oxygen substituents” (1985).

Assays:
Rattus norvegicus [1] = species on record: Rattus norvegicus; assay: […] and the effective dose required for the elicitation of the complete psychotomimetic spectrum was determined; f =Not effective at 50 mg; type: functional, organism-based
[2] = […] and the effective dose required for the elicitation of the complete psychotomimetic spectrum was determined.; type: functional
Rattus norvegicus [3] = species on record: Rattus norvegicus; assay: Onset time in minutes, between ingestion and the first noticeable symptoms was determined; type: functional
Rattus norvegicus [4] = species on record: Rattus norvegicus; assay: Duration of time in hours, after ingestion at which central effects begin to decline was determined.; type: functional

| Compound | Effective dose (Rattus norvegicus [1]) | Effective dose [2] | Onset time (Rattus norvegicus [3]) | Duration (Rattus norvegicus [4]) |
| --- | --- | --- | --- | --- |
| CC(C)N(C)CCc1c[nH]c2cc3ooc3cc12 | Not effective at 50mg |  |  |  |
| COc1cc2[nH]cc(CCN(C)C(C)C)c2cc1OC | Not effective at 50mg |  |  |  |
| COc1cccc2c(CCN(C)C(C)C)c[nH]c12 | Not effective at 50mg |  |  |  |
| CC(C)N(C)CCc1c[nH]c2ccccc12 |  | 25 mg/kg | 40 min | 3 h |
| COc1ccc2c(CCN(C)C(C)C)c[nH]c2c1 | Not effective at 50mg |  |  |  |
| CC(C)N(C)CCc1c[nH]c2cccc(O)c12 |  | 10 mg/kg | 20 min | 6 h |
| COc1ccc2[nH]cc(CCN(C)C(C)C)c2c1 |  | 5 mg/kg | 9 min | 3 h |
| COc1cccc2[nH]cc(CCN(C)C(C)C)c12 |  | 30 mg/kg | 45 min | 2 h |
